Measurements: ChEMBL document CHEMBL1145681, “Inhibitory effect of dehydroevodiamine and evodiamine on nitric oxide production in cultured murine macrophages” (J Nat Prod, 1997)
Activity calls are given as the source filed them. The rule behind the calls is not given here.

Experiments:
[1] = system: RAW264.7; assay: Antiinflammatory activity in IFN-gamma/LPS-stimulated mouse RAW264.7 cells assessed as inhibition of NO production at 50 uM treated after 18.5 hrs of LPS addition measured after 19 hrs relative to control; assay type: functional, cell-based
[2] = system: RAW264.7; assay: Antiinflammatory activity in IFN-gamma/LPS-stimulated mouse RAW264.7 cells assessed as inhibition of NO production at 50 uM treated before 30 mins of IFN-gamma stimulation in presence of LPS measured after 19 hrs relative to control; assay type: functional; settings: values are per cent of control
[3] = system: RAW264.7; assay: Antiinflammatory activity in IFN-gamma/LPS-stimulated mouse RAW264.7 cells assessed as NO production at 100 uM treated after 3 hrs of IFN-gamma stimulation and before 30 mins of LPS addition measured after 19 hrs relative to control
[4] = system: RAW264.7; assay: Antiinflammatory activity in IFN-gamma/LPS-stimulated mouse RAW264.7 cells assessed as inhibition of NO production at 100 uM treated before 30 mins of IFN-gamma stimulation in presence of LPS measured after 19 hrs relative to control; assay type: functional; settings: values are per cent of control
[5] = system: RAW264.7; assay: Antiinflammatory activity in IFN-gamma/LPS-stimulated mouse RAW264.7 cells assessed as inhibition of NO production at 50 uM treated after 2 hrs of LPS addition measured after 19 hrs relative to control; values are per cent of control
[6] = system: RAW264.7; assay: Antiinflammatory activity in IFN-gamma/LPS-stimulated mouse RAW264.7 cells assessed as inhibition of NO production at 10 uM treated after 2 hrs of LPS addition measured after 19 hrs relative to control; values are per cent of control
[7] = system: RAW264.7; assay: Antiinflammatory activity in IFN-gamma/LPS-stimulated mouse RAW264.7 cells assessed as inhibition of NO production at 100 uM treated after 2 hrs of LPS addition measured after 19 hrs relative to control; values are per cent of control
[8] = system: RAW264.7; assay: Antiinflammatory activity in IFN-gamma/LPS-stimulated mouse RAW264.7 cells assessed as inhibition of NO production at 10 uM treated before 30 mins of IFN-gamma stimulation in presence of LPS measured after 19 hrs relative to control; assay type: functional; settings: values are per cent of control
[9] = system: RAW264.7; assay: Antiinflammatory activity in IFN-gamma/LPS-stimulated mouse RAW264.7 cells assessed as NO production at 10 uM treated after 3 hrs of IFN-gamma stimulation and before 30 mins of LPS addition measured after 19 hrs relative to control
[10] = system: RAW264.7; assay: Antiinflammatory activity in IFN-gamma/LPS-stimulated mouse RAW264.7 cells assessed as NO production at 50 uM treated after 3 hrs of IFN-gamma stimulation and before 30 mins of LPS addition measured after 19 hrs relative to control
[11] = system: RAW264.7; assay: Cytotoxicity against IFN-gamma/LPS-stimulated mouse RAW264.7 cells at 10 to 100 uM treated after 3 hrs of IFN-gamma stimulation and before 30 mins of LPS addition measured after 19 hrs by MTT assay; assay type: cell-based; settings: raw264.7, 19 h
[12] = system: RAW264.7; assay: Cytotoxicity against IFN-gamma/LPS-stimulated mouse RAW264.7 cells at 10 to 100 uM treated after 2 hrs of LPS addition measured after 19 hrs by MTT assay; assay type: cell-based; settings: raw264.7, 19 h
[13] = system: RAW264.7; assay: Antiinflammatory activity in IFN-gamma/LPS-stimulated mouse RAW264.7 cells assessed as inhibition of NO production at 30 uM treated after 18.5 hrs of LPS addition measured after 19 hrs relative to control; assay type: functional, cell-based
[14] = system: RAW264.7; assay: Antiinflammatory activity in IFN-gamma/LPS-stimulated mouse RAW264.7 cells assessed as inhibition of NO production at 10 uM treated after 18.5 hrs of LPS addition measured after 19 hrs relative to control; assay type: functional, cell-based
[15] = system: RAW264.7; assay: Antiinflammatory activity in IFN-gamma/LPS-stimulated mouse RAW264.7 cells assessed as inhibition of NO production at 30 uM treated after 3 hrs of IFN-gamma stimulation and before 30 mins of LPS addition measured after 19 hrs relative to control; assay type: functional, cell-based
[16] = system: RAW264.7; assay: Antiinflammatory activity in IFN-gamma/LPS-stimulated mouse RAW264.7 cells assessed as inhibition of NO production at 100 uM treated after 3 hrs of IFN-gamma stimulation and before 30 mins of LPS addition measured after 19 hrs relative to control; assay type: functional
[17] = system: RAW264.7; assay: Antiinflammatory activity in IFN-gamma/LPS-stimulated mouse RAW264.7 cells assessed as inhibition of NO production at 50 uM treated after 3 hrs of IFN-gamma stimulation and before 30 mins of LPS addition measured after 19 hrs relative to control; assay type: functional
[18] = system: RAW264.7; assay: Antiinflammatory activity in IFN-gamma/LPS-stimulated mouse RAW264.7 cells assessed as inhibition of NO production at 30 uM treated before 30 mins of IFN-gamma stimulation in presence of LPS measured after 19 hrs relative to control; assay type: functional
[19] = system: RAW264.7; assay: Cytotoxicity against IFN-gamma/LPS-stimulated mouse RAW264.7 cells at 10 to 100 uM treated after 18.5 hrs of LPS addition measured after 19 hrs by MTT assay; assay type: cell-based; settings: raw264.7, 19 h

Row | Compound | Activity [1] | response, % of control at 50 µM [2] [%] | level, % of control at 100 µM [3] [%] | response, % of control at 100 µM [4] [%] | NO level, % of control [5] [%] | NO level, % of control [6] [%] | NO level, % of control [7] [%] | response, % of control at 10 µM [8] [%] | level, % of control at 10 µM [9] [%] | level, % of control at 50 µM [10] [%] | Activity [11] | Activity [12] | Activity [13] | Activity [14] | Activity [15] | Activity [16] | Activity [17] | inhibition at 30 µM [18] [%] | Activity [19]
1 | C[n+]1c2n(c(=O)c3ccccc31)CCc1c-2[nH]c2ccccc12 [DEHYDROEVODIAMINE] | inactive | 74.2 | 23.2 | 44 | 77 | 84.3 | 24.2 | 80.6 | 86.1 | 78.1 | Not Active | Non-toxic | inactive | inactive |  |  |  |  | 
2 | CN1c2ccccc2C(=O)N2CCc3c([nH]c4ccccc34)[C@@H]21 [EVODIAMINE] |  | 68.3 |  |  |  |  |  | 79.5 |  |  |  |  |  |  | inactive | inactive | inactive | 50.6 | 
3 | CN1c2ccccc2C(=O)N2CCc3c([nH]c4ccccc34)[C@H]21 [EVODIAMINE] |  |  |  |  |  |  |  |  |  |  | Not Active | Non-toxic |  |  |  |  |  |  | Non-toxic
